Laboratory results: US20220347299A1, “FLUORESCENT SYSTEMS FOR BIOLOGICAL IMAGING AND USES THEREOF” (LIGHTOX LIMITED, priority 2019, published 2022)

Key:
S. epidermidis [1] = assay: Overnight growth curve (OD 600 nm) cytotoxicity assay, S. epidermidis; type: cell-based, Staphylococcus epidermis
Protocol: A sample of S. epidermidis was taken from a plate culture and inoculated into Luria Broth to culture overnight at 30° C. for approximately 16 hours.
Samples were incubated in darkness at room temperature for approximately 2 hrs. A black clear bottom Costar™-96 well plate was then filled, with 200 μl of sample in each well Cells were irradiated for 5 minutes at approximately 15 mW/cm^2. The cytotoxicity of the compounds without irradiation was also assessed.
The 96 well plate was put into the plate reader and set up to run a growth curve protocol using the following parameters: • Incubation temperature: 37° C. • OD read wavelength 600 nm • 250 cycles, readings every 5 rains • Shaking for 5 s pre-reading
This was left to run overnight to obtain kinetic growth curves based on optical density readings.

S. epidermidis [2] = assay: Baclight staining (propidium iodide / Syto 9), widefield imaging, S. epidermidis; type: cell-based, Staphylococcus epidermis; conditions: 1 μM
Protocol: Samples prepared according to Table 9 were treated with compounds by diluting 10 mM of stock solution in media to make a 100 μM concentration. This solution was then further diluted 1:10 and 1:100 in media to make 10 μM and 1 μM media solutions containing the compound. 50 μl of cell culture were then added to the 100 μM, 10 μM and 1 μM compound-containing media preparations. Following the treatment outlined in Table 9, each of the three bacterial strains were stained using a Baclight™ staining kit containing separate solutions of Syto™ 9 and Propidium Iodide. One extra sample treated with 0.1 μM of each compound was also included in this assay. M. smegmatis, S. epidermis and B. subtilis were stained with propidium iodide to show non-viable cells and with Syto 9 to show all cells. The following staining procedure was used: • 1. 1 ml of each sample was eluted into a well of a 12-well plate; • 2. One half of the 12 well plate was irradiated at approximately 15 mW/cm^2 for 5 mins; • 3. The content of each well was eluted into separate Eppendorfs and centrifuged at 10,000 r.p.m for 3 rains to form a culture pellet; • 4. Media was then removed, and each pellet resuspended in 200 μl of 1× PBS before being centrifuged at 10,000 r.p.m. for 3 mins. • 5. A preparation of Baclight™-staining solution was made using 1 ml 1× PBS, 3 μl propidium iodide and 3 μl Syto™ 9; • 6. […]

HaCaT keratinocytes = assay: Co-staining with organelle markers, co-localisation (PCC); type: cell-based; conditions: 1 μM compound, 30 minutes, BODIPY ER-Tracker Red
Protocol: To study the localisation of compounds in biological cells, co-staining of compounds of formula I with specific organelle markers (fluorescent dyes and antibodies) within biological cells was conducted. The following compounds were studied: compounds 6, 7, 12, 13, 14 and 15. HaCaT keratinocyte cell lines were used for the following experimental procedures. The cells were incubated in cell culture media (94% Dulbecco's Modified Eagle Medium (DMEM), 5% Foetal Bovine Serum (FBS) and 1% Penicillin Streptomycin solution (Pen-Strep). The cells were plated in 8-well plates, at a concentration of 25,000 cells per ml. 200 μl of cell suspension was added to each well, and the cells were incubated for 2 days before staining and imaging was carried out. In order to visualise the mitochondria, cells were probed with the mitochondrial dye MitoTracker® Deep Red. Cells to be stained were incubated with 200 μl MitoTracker® Deep Red solution (200 nM MitoTracker® and 1 μM Formula I compound in cell culture media) per well (N=3) for 30 minutes. Nile Red was used to identify lipids within the cells. 200 μl Nile Red Lipophilic dye (10 μg/ml Nile Red and 1 μM Formula I compound in cell culture media) was added to each well (N=3) and incubated for 30 minutes. For the detection of lysosomes within the cells, LysoTracker® Red DND-99 dye was used. 200 μl LysoTracker® Red DND-99 (50 nM LysoTracker® and 1 μM Formula I compound solution in cell culture media) was added to each well (N=3) and incubated for 30 minutes. For visualisation of the endoplasmic reticulum (ER), cells were stained with BODIPY® ER-Tracker® Red. 200 μl BODIPY ER-Tracker® Red (1 μM BODIPY® and 1 μM Formula I compound solution in cell culture media) was added to each well (N=3) and incubated for 30 minutes. Following incubation, the cell culture media containing dye was removed, and cells were washed twice with 200 μl phosphate buffered saline (PBS). After washing, 200 μl PBS was added into each well for imaging. For visualisation of the nuclear lamina, cells were probed with an anti-lamin A/C antibody. The cells were plated on 22×22 mm cover slips (10,000 cells/ml) and incubated for 2 days before staining. The cells were washed with PBS to remove excess media before staining. The cells were fixed with 4% paraformaldehyde (PFA) for 10 minutes at room temperature, before being washed twice in PBS for 5 minutes. Following washing, the cells were permeabilised in 0.4% Triton X-100 in PBS for 10 minutes. The cells were subsequently washed three times in PBS for 5 minutes, before being incubated in blocking buffer (1% BSA, 0.1% fish gelatine and 0.1% Triton X-100 in PBS) for 15 minutes at room temperature. The cells were incubated in primary antibody (mouse anti-lamin A/C IgG in blocking buffer) for 1 hour at room temperature. The cells were then washed twice in blocking buffer and incubated in secondary antibody (anti-mouse Alexa-594 IgG in blocking buffer) for 30 minutes at room temperature. Cells were washed twice in PBS for 10 minutes at room temperature. For cell staining with compounds of formula I, 5 μM of the compound of formula I in PBS was added to the cells for 30 minutes at room temperature. Cells were then washed five times for 5 minutes in PBS. Following washing, the cells were mounted onto non-charged microscopy slides using 6 μl Mowiol® per cover slip as mounting media. A Zeiss 880 confocal microscope was used for all the imaging work. [table] Image) Coloc2 software was used to calculate co-localization statistics between the compounds of formula I and the organelle marker images. The background was subtracted from each image and a region of interest (ROI) was used to target the analysis. The point spread function (PSF) of each image was calculated as 2.0 and Coastes' iterations was set to 100. The statistic quantified was the Pearson's Correlation Coefficient (PCC). PCC gives a number ranging from +1 to −1:1=perfect co-localisation; 0=no relationship; and, −1=perfect anti-co-localisation. […]

[3] = Peak absorption and fluorescence emission wavelengths in solvents; type: physicochemical; conditions: for λem(max)/nm: 100 nM, excitation at peak of absorption; for λabs(max)/nm: 10 μM
Protocol: Peak absorption and fluorescence emission wavelengths of compounds 6, 7, 12, 13, 14, 15, 19, 23, 27, 30 and 34 were measured in a variety of solvents, and the results are shown in Table 1. Absorption measurements were recorded at a concentration of 10 μM, and emission measurements were recorded at a concentration of 100 nM. Emission spectra were recorded with excitation at the peak of absorption (S0→S1).

Bacillus subtilis = assay: Overnight growth curve (OD 600 nm) cytotoxicity assay, B. subtilis; type: cell-based
Protocol: A sample of B. subtilis was taken from a plate culture and inoculated into Luria Broth to culture overnight at 37° C. for approximately 16 hours. [table] Samples were incubated in darkness at room temperature for approximately 2 hrs. A black clear bottom Costar™-96 well plate was then filled, with 200 μl of sample in each well Cells were irradiated for 5 minutes at approximately 15 mW/cm^2. The cytotoxicity of the compounds without irradiation was also assessed. The 96 well plate was put into the plate reader and set up to run a growth curve protocol using the following parameters: • Incubation temperature: 37° C. • OD read wavelength 600 nm • 250 cycles, readings every 5 rains • Shaking for 5 s pre-reading This was left to run overnight to obtain kinetic growth curves based on optical density readings.

average PCC Value with BODIPY ER-Tracker (HaCaT keratinocytes): 0.48
λem(max)/nm ([3]; DCM): 550 nm
λabs(max)/nm ([3]; DCM): 368 nm
λem(max)/nm ([3]; Toluene): 482 nm
λabs(max)/nm ([3]; Toluene): 358 nm
Compound: CC(C)(C)OC(=O)/C=C/c1ccc(C#Cc2ccc(N3CCNCC3)cc2)cc1 [Compound 6, tert-butyl (2E)-3-(4-{2-[4-(piperazin-1-yl)phenyl]ethynyl}phenyl)prop-2-enoate]
lag phase of growth of S. epidermidis, photoactivated (S. epidermidis [1]; 1 μM, 405 nm, 5 min, approximately 15 mW/cm^2, untreated lag around 2 hrs): around 15 hrs
growth of S. epidermidis, non-photoactivated (S. epidermidis [1]; 1 μM, not irradiated): minor impact on growth by extended lag phase
growth of S. epidermidis (S. epidermidis [1]; 100 and 10μ concentrations, with or without photoactivation): no growth is evident regardless of any photoactivation
non-viable (red, propidium iodide) cells compared with untreated controls (S. epidermidis [2]): increase in red fluorescent cells
growth of B. subtilis (Bacillus subtilis; 10 μM, effect much more significant in the radiated sample): growth is reduced and lag time extended
growth of B. subtilis, radiated (Bacillus subtilis; 5 and 1 μM, 405 nm, 5 min): some growth inhibition
